From US7968570B2, “Isoindolone compounds and their use as metabotropic glutamate receptor potentiators” (AstraZeneca AB, priority 2004, dated 2011)

biological target: T1, human mGluR2 receptor (Homo sapiens, UniProt Q14416); experiment: [35S]-GTPγS binding assay of mGluR2 receptor activation; type: biochemical; settings: not given
T1 construct: expressed in transfected cells
Method: A [^35S]-GTPγS binding assay was used to functionally assay mGluR2 receptor activation. The allosteric activator activity of compounds at the human mGluR2 receptor were measured using a [^35S]-GTPγS binding assay with membranes prepared from CHO cells which stably express the human mGluR2. The assay is based upon the principle that agonists bind to G-protein coupled receptors to stimulate GDP-GTP exchange at the G-protein. Since [^35S]-GTPγS is a non-hydrolyzable GTP analog, it can be used to provide an index of GDP-GTP exchange and, thus, receptor activation. The GTPγS binding assay therefore provides a quantitative measure of receptor activation.
Membranes were prepared from CHO cells stably transfected with human mGluR2. Membranes (30 μg protein) were incubated with test compound (3 nM to 300 μM) for 15 minutes at room temperature prior to the addition of 1 μM glutamate, and incubated for 30 min at 30° C. in 500 μl assay buffer (20 mM HEPES, 100 mM NaCl, 10 mM MgCl2), containing 30 μM GDP and 0.1 nM [^35S]-GTPγS (1250 Ci/mmol). Reactions were carried out in triplicate in 2 ml polypropylene 96-well plates. Reactions were terminated by vacuum filtration using a Packard 96-well harvester and Unifilter-96, GF/B filter microplates. The filter plates were washed 4×1.5 ml with ice-cold wash buffer (10 mM sodium phosphate buffer, pH 7.4). The filter plates were dried and 35 μl of scintillation fluid (Microscint 20) was added to each well. The amount of radioactivity bound was determined by counting plates on the Packard TopCount. Data was analyzed using GraphPad Prism, and EC50 and Emax values (relative to the maximum glutamate effect) were calculated using non-linear regression.

T1 sequence (Q14416 19-872): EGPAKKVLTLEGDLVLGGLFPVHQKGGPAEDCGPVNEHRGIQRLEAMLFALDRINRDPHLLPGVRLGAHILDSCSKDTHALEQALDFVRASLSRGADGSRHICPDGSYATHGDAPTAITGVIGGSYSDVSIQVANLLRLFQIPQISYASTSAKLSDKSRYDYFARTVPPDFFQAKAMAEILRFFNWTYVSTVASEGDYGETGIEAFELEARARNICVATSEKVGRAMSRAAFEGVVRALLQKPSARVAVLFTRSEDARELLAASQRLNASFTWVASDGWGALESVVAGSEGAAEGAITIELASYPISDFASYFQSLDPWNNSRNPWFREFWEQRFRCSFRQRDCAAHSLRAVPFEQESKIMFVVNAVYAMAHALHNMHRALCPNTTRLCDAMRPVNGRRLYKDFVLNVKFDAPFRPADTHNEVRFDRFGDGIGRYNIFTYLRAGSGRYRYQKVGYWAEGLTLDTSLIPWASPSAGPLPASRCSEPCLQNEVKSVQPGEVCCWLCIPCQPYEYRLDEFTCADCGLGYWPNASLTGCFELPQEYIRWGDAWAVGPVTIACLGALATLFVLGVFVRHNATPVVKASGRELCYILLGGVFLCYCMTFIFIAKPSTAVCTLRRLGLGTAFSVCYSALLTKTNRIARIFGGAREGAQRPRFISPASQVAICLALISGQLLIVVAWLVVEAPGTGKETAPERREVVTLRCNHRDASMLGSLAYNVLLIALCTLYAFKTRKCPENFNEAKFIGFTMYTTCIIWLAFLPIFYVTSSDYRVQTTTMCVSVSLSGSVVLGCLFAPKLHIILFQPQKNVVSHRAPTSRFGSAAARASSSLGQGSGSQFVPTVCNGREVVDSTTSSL

Row | Structure (SMILES) | EC50 [nM]
1 | Cc1cc(CC2CCN(Cc3cccnc3)CC2)cc2c1C(=O)N(Cc1ccc(OC(F)(F)F)cc1)C2 [Example 169, 7-methyl-5-(1-pyridin-3-ylmethyl-piperidin-4-ylmethyl)-2-(4-trifluorometh-oxy-benzyl)-2,3-dihydro-isoindol-1-one] | 140
2 | CCN(CC)Cc1noc(-c2cc(C)c3c(c2)CN(Cc2ccc(OC(F)(F)F)cc2)C3=O)n1 [Example 177, 5-(3- Diethylaminomethyl-[1,2,4]oxadiazol-5-yl)-7-methyl-2-(4-trifluorometh-oxy-benzyl)-2,3-dihydro-isoindol-1-one] | 140
3 | Cc1cc(CC2CCN(C3CCCC3)CC2)cc2c1C(=O)N(Cc1ccc(OC(F)(F)F)cc1)C2 [Example 173, 5-(1-cyclopentyl-piperidin-4-ylmethyl)-7-methyl-2-(4-trifluorometh-oxy-benzyl)-2,3-dihydro-isoindol-1-one] | 820
4 | Cc1cc(-c2nnc(CN3CCOCC3)o2)cc2c1C(=O)N(Cc1ccc(OC(F)(F)F)cc1)C2 [Example 176, 7-Methyl-5-(5-morpholin-4-ylmethyl-[1,3,4]oxadiazol-2-yl)-2-(4-trifluorometh-oxy-benzyl)-2,3-dihydro-isoindol-1-one] | 1290
5 | Cc1cc(CC2CCN(Cc3ccncc3)CC2)cc2c1C(=O)N(Cc1ccc(OC(F)(F)F)cc1)C2 [Example 170, 7-methyl-5-(1-pyridin-4-ylmethyl-piperidin-4-ylmethyl)-2-(4-trifluorometh-oxy-benzyl)-2,3-dihydro-isoindol-1-one] | 80
6 | Cc1cc(-c2nc(CN(C)C)no2)cc2c1C(=O)N(Cc1ccc(OC(F)(F)F)cc1)C2 [Example 180, 5-(3-Dimethylamino-methyl-[1,2,4]oxadiazol-5-yl)-7-methyl-2-(4-trifluorometh-oxy-benzyl)-2,3-dihydro-isoindol-1-one] | 100

same assay, conditions: membranes from CHO cells stably expressing human mGluR2; 1 μM glutamate

Row | Structure (SMILES) | EC50 [nM]
7 | O=C1c2c(Cl)cc(N3CCN4CCCC4C3)cc2CN1Cc1ccc(OC(F)(F)F)cc1 (stereo not drawn) [Example 132, 7-Chloro-5-(hexahydro-pyrrolo[1,2-a]pyrazin-2-yl)-2-(4-trifluoromethoxy-benzyl)-2,3-dihydro-isoindol-1-one] | 480
8 | Cc1cc(C2CCNCC2)cc2c1C(=O)N(Cc1ccc(OC(F)(F)F)cc1)C2 [Example 158, 7-Methyl-5-piperidin-4-yl-2-(4-trifluoromethoxy-benzyl)-2,3-dihydro-isoindol-1-one] | 2020
9 | COc1cc(C2=CCN(C)CC2)cc2c1C(=O)N(Cc1ccc(OC(F)(F)F)cc1)C2 [Example 90, 7-Methoxy-5-(1-methyl-1,2,3,6-tetrahydro-pyridin-4-yl)-2-(4-trifluoromethoxy-benzyl)-2,3-dihydro-isoindol-1-one] | 3820
10 | Cc1cc(N2CCN3CCCC3C2)cc2c1C(=O)N(Cc1ccc(OC(F)(F)F)cc1)C2 (stereo not drawn) [Example 111, 5- (Hexahydropyrrolo [1,2-a]pyrazin-2-yl)-7-methyl-2-(4-trifluoromethoxybenzyl)-2,3-dihydroisoindol-1-one] | 600
11 | CN(C)C1CCN(c2cc(Cl)c3c(c2)CN(Cc2ccc(Cl)cc2)C3=O)C1 (stereo not drawn) [Example 135, 7-Chloro-2-(4-chloro-benzyl)-5-(3-dimethylamino-pyrolidin-1-yl)-2,3-dihydro-isoindol-1-one] | 610
12 | Cc1cc(CNCCCc2ccccc2)cc2c1C(=O)N(Cc1ccc(OC(F)(F)F)cc1)C2 [Example 47, 7-Methyl-5-[(3-phenyl-propylamino)-methyl]-2-(4-trifluoromethoxy-benzyl)-2,3-dihydro-isoindol-1-one] | 340
13 | Cc1cc(N2CCN(Cc3ccncc3)CC2)cc2c1C(=O)N(Cc1ccc(OC(F)(F)F)cc1)C2 [Example 136, 7-Methyl-5-(4-pyridin-4-ylmethyl-piperazin-1-yl)-2-(4-trifluoromethoxy-benzyl)-2,3-dihydro-isoindol-1-one] | 700
14 | Cc1cc(Br)cc2c1C(=O)N(Cc1ccc(Cl)cc1)C2 [Example 31, 5-Bromo-2-(4-chlorobenzyl)-7-methyl-2,3-dihydroisoindol-1-one] | 710
15 | Cc1cc(C(=O)N2CCN(Cc3ccccc3)CC2)cc2c1C(=O)N(Cc1ccc(OC(F)(F)F)cc1)C2 [Example 161, 5-(4-Benzyl-piperazine-1-carbonyl)-7-methyl-2-(4-trifluoromethoxy-benzyl)-2,3-dihydro-isoindol-1-one] | 630
16 | Cc1cc(-c2cccnc2)cc2c1C(=O)N(Cc1ccc(Cl)cc1)C2 [Example 98, 2-(4-chlorobenzyl)-7-methyl-5-pyridin-3-yl-2,3-dihydroisoindol-1-one] | 100
17 | Cc1ccc(CN2Cc3cc(C4=CCN(C)CC4)ccc3C2=O)cc1 [Example 89] | 9720
18 | Cc1cc(CN2CC=CC2)cc2c1C(=O)N(Cc1ccc(OC(F)(F)F)cc1)C2 [Example 39, 5-(2,5-Dihydro-pyrrol-1-ylmethyl)-7-methyl-2-(4-trifluoromethoxy-benzyl)-2,3-dihydro-isoindol-1-one] | 2400
19 | Cc1cc(-c2cccnc2)cc2c1C(=O)N(Cc1ccc(OC(F)(F)F)cc1)C2 [Example 95, 7-Methyl-5-pyridin-3-yl-2-(trifluoromethoxybenzyl)-2,3-dihydroisoindol-1-one] | 50
20 | Cc1cc(CNCc2cccnc2)cc2c1C(=O)N(Cc1ccc(OC(F)(F)F)cc1)C2 [Example 41, 7-Methyl-5-{[(pyridine-3-ylmethyl)-amino]-methyl}-2-(4-trifluoromethoxy-benzyl)-2,3-dihydro-isoindol-1-one] | 910
21 | O=C(CN1CCN(c2ccc3c(c2)CN(Cc2ccc(OC(F)(F)F)cc2)C3=O)CC1)N1CCCC1 [Example 148, 5-[4-(2-Oxo-2-pyrrolidin-1-yl-ethyl)-piperazin-1-yl]-2-(4-trifluoromethoxy-benzyl)-2,3-dihydro-isoindol-1-one] | 6780
22 | Cc1cc(N2CCC(N(C)C)C2)cc2c1C(=O)N(Cc1ccc(OC(F)(F)F)cc1)C2 (stereo not drawn) [Example 115, 5-(3-dimethylamino-pyrollidin-1-yl)-7-methyl-2-(4-trifluoromethoxy-benzyl)-2,3-dihydroisoindol-1-one] | 300
23 | CN1CN(c2ccccc2)C2(CCN(c3ccc4c(c3)CN(Cc3ccc(OC(F)(F)F)cc3)C4=O)CC2)C1=O [Example 151, 3-Methyl-8-[1-oxo-2-(4-trifluoromethoxy-benzyl)-2,3-dihydro-1H-isoindol-5-yl]-1-phenyl-1,3,8-triaza-spiro[4.5]decan-4-one] | 480
24 | Cc1cc(CN2CCC(n3c(=O)[nH]c4ccccc43)CC2)cc2c1C(=O)N(Cc1ccc(OC(F)(F)F)cc1)C2 [Example 56, 1-{1-[7-Methyl-1-oxo-2-(4-trifluoromethoxy-benzyl)-2,3-dihydro-1H-isoindol-5-ylmethyl]-piperidin-4-yl}-1,3-dihydro-benzoimidazol-2-one] | 60
25 | Cc1cc(-c2cccc(CN(C)C)c2)cc2c1C(=O)N(Cc1ccc(OC(F)(F)F)cc1)C2 [Example 87, 5-(3-Dimethylamino-methyl-phenyl)-7-methyl-2-(4-trifluoromethoxy-benzyl)-2,3-dihydro-isoindol-1-one] | 290
26 | Cc1ccc(CN2Cc3cc(-c4cccnc4)ccc3C2=O)cc1 [Example 94, 2-(4-Methylbenzyl)-5-pyridin-3-yl-2,3-dihydroisondol-1-one] | 2760
27 | Cc1cc(-c2ccncc2)cc2c1C(=O)N(Cc1ccc(OC(F)(F)F)cc1)C2 [Example 96, 7-Methyl-5-pyridin-4-yl-2-(trifluoromethoxybenzyl)-2,3-dihydroisoindol-1-one] | 130
28 | Cc1cc(N2CCN3CCCC3C2)cc2c1C(=O)N(Cc1ccc(Oc3ccccc3)cc1)C2 (stereo not drawn) [Example 116, 5-(Hexahydro-pyrrolo[1,2-a]pyrazin-2-yl)-7-methyl-2-(4-phenoxybenzyl)-2,3-dihydroisoindol-1-one] | 180
29 | Cc1cc(OCc2ccccn2)cc2c1C(=O)N(Cc1ccc(OC(F)(F)F)cc1)C2 [Example 82, 7-Methyl-5-(pyridine-2-ylmethoxy)-2-(4-trifluoromethoxy-benzyl)-2,3-dihydro-isoindol-1-one] | 100
30 | O=C1c2c(Cl)cc(-c3ccncc3)cc2CN1Cc1ccc(OC(F)(F)F)cc1 [Example 102, 7-Chloro-5-pyridin-4-yl-2-(4-trifluoromethoxy-benzyl)-2,3-dihydro-isoindol-1-one] | 90
31 | Cc1cc(C(=O)N2CCN(Cc3ccncc3)CC2)cc2c1C(=O)N(Cc1ccc(OC(F)(F)F)cc1)C2 [Example 162, 7-Methyl-5-(4-pyridin-4-ylmethyl-piperazine-1-carbonyl)-2-(4-trifluoromethoxy-benzyl)-2,3-dihydro-isoindol-1-one] | 550
32 | O=C1c2c(Cl)cc(N3CCN(c4ccncc4)CC3)cc2CN1Cc1ccc(OC(F)(F)F)cc1 [Example 145, 7-Chloro-5-(4-pyridin-4-yl-piperazin-1-yl)-2-(4-trifluoromethoxy-benzyl)-2,3-dihydro-isoindol-1-one] | 400
33 | O=C1c2c(Cl)cc(-c3cccnc3)cc2CN1Cc1ccc(Cl)cc1 [Example 107, 7-Chloro-2-(4-chloro-benzyl)-5-pyridin-3-yl-2,3-dihydro-isoindol-1-one] | 360
